Reference: US20260176320A1, “MODULATORS OF G-PROTEIN COUPLED RECEPTORS” (priority 2018, published 2026)
Where two headings read alike, the source gives them in different places.

Experiments:
Format in all cases: cell-based
GIP-R = target: T1, GIP-R (Homo sapiens, UniProt P48546); experiment: HitHunter cAMP assay (GIP-R); settings: cAMP; for EC50: read-out: EC50 GIP-R/nM; for Emax: read-out: (Emax) GIP-R
T1 sequence (P48546 22-466): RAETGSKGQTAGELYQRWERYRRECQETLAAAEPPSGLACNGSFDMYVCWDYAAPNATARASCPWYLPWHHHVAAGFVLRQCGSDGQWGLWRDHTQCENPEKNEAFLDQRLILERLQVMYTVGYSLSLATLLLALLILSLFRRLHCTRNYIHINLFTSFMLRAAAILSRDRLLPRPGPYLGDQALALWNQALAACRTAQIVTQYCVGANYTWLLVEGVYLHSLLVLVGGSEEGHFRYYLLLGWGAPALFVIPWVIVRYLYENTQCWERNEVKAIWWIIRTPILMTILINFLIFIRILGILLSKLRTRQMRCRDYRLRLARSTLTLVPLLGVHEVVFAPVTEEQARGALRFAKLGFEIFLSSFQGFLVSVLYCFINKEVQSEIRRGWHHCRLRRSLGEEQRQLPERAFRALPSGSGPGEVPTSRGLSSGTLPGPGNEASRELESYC
Outline: (§1)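 Duplicate 22-point, 2-fold agonist titrations applied to receptor-expressing suspension cells in IBMX-containing HBSS; 30 min RT stimulation. Read: luminescent cAMP immunocompetition after O/N dark incubation.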

GLP-1R [1] = target: T2, GLP-1R (Homo sapiens, UniProt P43220); experiment: HitHunter cAMP assay (GLP-1R); settings: cAMP; for Emax: read-out: (Emax) GLP-1R; for EC50: read-out: EC50 GLP-1R/nM
T2 sequence (P43220 24-463): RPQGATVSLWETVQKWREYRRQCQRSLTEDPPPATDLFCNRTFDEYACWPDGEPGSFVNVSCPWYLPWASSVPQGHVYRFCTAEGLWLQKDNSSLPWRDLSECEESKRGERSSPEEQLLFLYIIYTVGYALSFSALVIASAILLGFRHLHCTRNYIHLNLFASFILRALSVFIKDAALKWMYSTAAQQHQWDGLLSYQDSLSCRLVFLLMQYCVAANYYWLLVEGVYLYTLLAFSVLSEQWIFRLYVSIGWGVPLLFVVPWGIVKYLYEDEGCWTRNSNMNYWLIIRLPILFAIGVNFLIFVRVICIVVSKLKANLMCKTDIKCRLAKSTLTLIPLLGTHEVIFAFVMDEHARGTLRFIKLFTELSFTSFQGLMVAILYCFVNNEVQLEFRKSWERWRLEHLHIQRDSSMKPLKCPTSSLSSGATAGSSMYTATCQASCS
Outline: as §1

GLP-1R [2] = target: T2, GLP-1R; experiment: PathHunter β-arrestin assay; settings: PathHunter β-arrestin assay; read-out: β-arrestin activity EC50
Outline: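 Following a 90 min agonist exposure at 37 °C in 0.2% BSA medium, β-arrestin coupling was detected by chemiluminescence after 3 h at room temperature.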

In the case of `CC[C@H](C)[C@H](NC(=O)[C@H](CO)NC(=O)[C@H](Cc1ccc(O)cc1)NC(=O)[C@H](CC(=O)O)NC(=O)[C@H](CO)NC(=O)[C@@H](NC(=O)[C@H](Cc1ccccc1)NC(=O)[C@@H](NC(=O)CNC(=O)[C@H](CCC(=O)O)NC(=O)COCC(=O)NCCN1C(=O)CSC1=O)[C@@H](C)O)[C@@H](C)O)C(=O)N[C@@H](Cc1ccc(O)cc1)C(=O)N[C@@H](CC(C)C)C(=O)N[C@@H](CC(=O)O)C(=O)N[C@@H](CCCCN)C(=O)N[C@@H](CCC(N)=O)C(=O)N[C@@H](C)C(=O)N[C@@H](C)C(=O)NC(C)(C)C(=O)N[C@@H](CCC(=O)O)C(=O)N[C@@H](Cc1ccccc1)C(=O)N[C@H](C(=O)N[C@@H](CC(N)=O)C(=O)N[C@@H](Cc1c[nH]c2ccccc12)C(=O)N[C@@H](CC(C)C)C(=O)N[C@@H](CC(C)C)C(=O)N[C@@H](C)C(=O)NCC(=O)NCC(=O)N1CCC[C@H]1C(=O)N[C@@H](CO)C(=O)N[C@@H](CO)C(=O)NCC(=O)N[C@@H](C)C(=O)N1CCC[C@H]1C(=O)N1CCC[C@H]1C(=O)N1CCC[C@H]1C(=O)N[C@@H](CO)C(=O)N[C@@H](CCCCN)C(N)=O)C(C)C` [Compound 194], the EC50 (GIP-R; Table 3) is reported as > 1000 nM, the EC50 (GIP-R; Table 3A) is reported as > 1000 nM and the Emax at 1 µM (GIP-R; read-out: (Emax) GIP-R at 1 μM, Table 3, at 1 μM) is reported as 12%. It also gave an Emax (GLP-1R [1]; Table 3) of 98%, an EC50 (GLP-1R [1]; Table 3) of 1 to 10 nM and an Emax (GLP-1R [1]; Table 3A) of 98%. The EC50 (GLP-1R [1]; Table 3A) was 1 to 10 nM and the EC50 (GLP-1R [2]) was > 1000 nM.

`CC[C@H](C)[C@H](NC(=O)[C@H](CO)NC(=O)[C@H](Cc1ccc(O)cc1)NC(=O)[C@H](CC(=O)O)NC(=O)[C@H](CO)NC(=O)[C@@H](NC(=O)[C@H](Cc1ccccc1)NC(=O)[C@@H](NC(=O)CNC(=O)[C@H](CCC(=O)O)NC(=O)CSCC(=O)NCCN1C(=O)CSC1=O)[C@@H](C)O)[C@@H](C)O)C(=O)N[C@@H](Cc1ccc(O)cc1)C(=O)N[C@@H](CC(C)C)C(=O)N[C@@H](CC(=O)O)C(=O)N[C@@H](CCCCN)C(=O)N[C@@H](CCC(N)=O)C(=O)N[C@@H](C)C(=O)N[C@@H](C)C(=O)NC(C)(C)C(=O)N[C@@H](CCC(=O)O)C(=O)N[C@@H](Cc1ccccc1)C(=O)N[C@H](C(=O)N[C@@H](CC(N)=O)C(=O)N[C@@H](Cc1c[nH]c2ccccc12)C(=O)N[C@@H](CC(C)C)C(=O)N[C@@H](CC(C)C)C(=O)N[C@@H](C)C(=O)NCC(=O)NCC(=O)N1CCC[C@H]1C(=O)N[C@@H](CO)C(=O)N[C@@H](CO)C(=O)NCC(=O)N[C@@H](C)C(=O)N1CCC[C@H]1C(=O)N1CCC[C@H]1C(=O)N1CCC[C@H]1C(=O)N[C@@H](CO)C(=O)N[C@@H](CCCCN)C(N)=O)C(C)C` [Compound 196] gave an Emax (GIP-R; Table 3) of 41 to 86%, an EC50 (GIP-R; Table 3) of 1 to 100 nM and an Emax (GIP-R; Table 3A) of 41 to 86%. For the same molecule, the EC50 (GIP-R; Table 3A) was 1 to 100 nM, the Emax (GLP-1R [1]; Table 3) was 93 to 104% and the EC50 (GLP-1R [1]; Table 3) was 0.1 to 10 nM. For the same molecule, the Emax (GLP-1R [1]; Table 3A) was 93 to 104%, the EC50 (GLP-1R [1]; Table 3A) was 0.1 to 10 nM and the EC50 (GLP-1R [2]) was > 1000 nM.

For `CCCCCCCCCCCCCCCC(=O)N[C@@H](CCC(=O)NCCCC[C@H](NC(=O)[C@H](CO)NC(=O)[C@@H]1CCCN1C(=O)[C@@H]1CCCN1C(=O)[C@@H]1CCCN1C(=O)[C@H](C)NC(=O)CNC(=O)[C@H](CO)NC(=O)[C@H](CO)NC(=O)[C@@H]1CCCN1C(=O)CNC(=O)CNC(=O)[C@H](C)NC(=O)[C@H](CC(C)C)NC(=O)[C@H](CC(C)C)NC(=O)[C@H](Cc1c[nH]c2ccccc12)NC(=O)[C@H](CC(N)=O)NC(=O)[C@@H](NC(=O)[C@H](Cc1ccccc1)NC(=O)[C@H](CCC(=O)O)NC(=O)C(C)(C)NC(=O)[C@H](C)NC(=O)[C@H](C)NC(=O)[C@H](CCC(N)=O)NC(=O)[C@H](CCCCN)NC(=O)[C@H](CC(=O)O)NC(=O)[C@H](CC(C)C)NC(=O)[C@H](Cc1ccc(O)cc1)NC(=O)[C@@H](NC(=O)[C@H](CO)NC(=O)[C@H](Cc1ccc(O)cc1)NC(=O)[C@H](CC(=O)O)NC(=O)[C@H](CO)NC(=O)[C@@H](NC(=O)[C@H](Cc1ccccc1)NC(=O)[C@@H](NC(=O)CNC(=O)[C@H](CCC(=O)O)NC(=O)CC(C)(C)C(=O)NCCN1CCCCC1=O)[C@@H](C)O)[C@@H](C)O)[C@@H](C)CC)C(C)C)C(N)=O)C(=O)O` [Compound 204], the Emax (GIP-R; Table 3A) was 98%, the EC50 (GIP-R; Table 3A) was 10 to 100 nM and the EC50 (GLP-1R [1]; Table 3A) was < 0.1 nM. The EC50 (GLP-1R [2]) was 20 to 1000 nM.
